Experimental data from patent US10550143B2, “C,O-spiro aryl glycoside compounds, preparation therefor and use thereof” (SHANGHAI INSTITUTE OF MATERIA MEDICA, CHINESE ACADEMY OF …, priority 2015, dated 2020).

Legend:
[1] = molecular target: T1, human sodium-glucose cotransporter 2 (SGLT2) (Homo sapiens, UniProt P31639); assay: In vitro SGLT2 inhibition, methyl-α-D-[U-14C]glucopyranoside uptake in NIH3T3-hSGLT2 cells; type: cell-based; conditions: for Selectivity: IC50 SGLT1/IC50 SGLT2; for inhibition at 0.01 µM: SGLT2, 10 nM, read-out: % Inhibition rate ± SD 10 nM; for inhibition at 0.1 µM: SGLT2, 100 nM, read-out: % Inhibition rate ± SD 100 nM; for IC50: read-out: IC50 ± SD SGLT2
T1 construct: expressed in transfected cells; host or cells: NIH3T3 (mouse fibroblast) cells expressing hSGLT2
T1 sequence (P31639 1-672): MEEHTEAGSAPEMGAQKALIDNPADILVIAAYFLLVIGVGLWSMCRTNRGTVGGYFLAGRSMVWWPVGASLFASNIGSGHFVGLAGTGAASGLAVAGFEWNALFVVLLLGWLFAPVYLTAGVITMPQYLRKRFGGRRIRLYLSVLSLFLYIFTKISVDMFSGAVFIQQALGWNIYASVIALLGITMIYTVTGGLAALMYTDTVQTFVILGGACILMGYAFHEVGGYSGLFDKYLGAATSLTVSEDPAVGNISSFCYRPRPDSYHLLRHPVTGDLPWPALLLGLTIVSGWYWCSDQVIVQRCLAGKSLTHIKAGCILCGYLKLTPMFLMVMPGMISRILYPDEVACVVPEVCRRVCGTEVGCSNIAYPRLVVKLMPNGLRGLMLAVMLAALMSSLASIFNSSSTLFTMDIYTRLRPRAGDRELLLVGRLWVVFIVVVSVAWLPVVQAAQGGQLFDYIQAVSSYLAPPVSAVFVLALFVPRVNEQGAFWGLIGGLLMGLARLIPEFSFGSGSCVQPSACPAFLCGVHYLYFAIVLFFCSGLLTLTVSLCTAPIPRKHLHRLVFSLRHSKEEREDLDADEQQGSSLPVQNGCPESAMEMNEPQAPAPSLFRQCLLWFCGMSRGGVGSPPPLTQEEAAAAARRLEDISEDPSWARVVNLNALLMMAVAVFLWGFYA
Description: Inhibition of the compounds of formula I against human sodium-glucose cotransporter 2 (SGLT2) was determined experimentally and the experimental procedures were carried out as reference^1.
Methyl-α-D-[U-^14C] glucopyranoside (Perkin Elmer) Dimethylsulfoxide (Genebase, Prod No: 0231)
(1) Primary screening of hSGLT2 are conducted with two concentrations, 100 nM and 10 nM;
SGLT2 transports D-glucose at 1:1 sodium-glucose ratio, glucose is replaced by the non-metabolic and isotope labeled methyl-aD-[U-^14C] glucopyranoside and methyl-aD-glucopyranoside, and the amount of isotope transferred into the cells was determined.
1) 0.2% gelatin in a 96-well plate was put in a 37° C. incubator for further use;
2) NIH3T3-hSGLT2 cells were injected into 96-well plates, 40000/well, and 100 μL culture medium per well:
3) the fluid was changed in the next day, and sodium butyrate was added into medium at a final concentration of 2 mM;
4) wash the cells with 100 μL of KRH—Na^+ for 3 times and incubate cells with 50 μL for 30 minutes. Cells were changed to 50 μL of compound in KRH—Na^+, uptake buffer (KRH—Na^+ and methyl-α-D-[U-^14C]glucopyranoside and ⅙ mM methyl-α-D-glucopyranoside at 10 μL per well) was added; KRH-acetylcholine solution was used as background control instead of KRH-Na^+
5) washed with 100 μL PBS for 3 times, dried, 50 μL lysate and 150 μL scintillation fluid were added, the membrane was covered and flattened, shaken on a shaker to mix thoroughly, centrifuged at 1500 rpm at 4° C. for 3 min, taken out and read;
6) the results were analyses.
The inhibition rate (% Inhibiton) of each sample at each concentration was calculated by dividing the value of the compound well value minus the background value by the value of the DMSO control well value minus the background value.
IC50 is calculated as follows: […]
The y value is the activity or inhibition percent, the x value is the concentration of the corresponding compound, top (the maximum y value of the curve), bottom (the minimum y value of the curve).

hSGLT1 = molecular target: T2, hSGLT1 (Homo sapiens, UniProt P13866); assay: In vitro SGLT1 inhibition (hSGLT1 IC50 test); type: cell-based; conditions: read-out: IC50 ± SD SGLT1
T2 sequence (P13866 1-664): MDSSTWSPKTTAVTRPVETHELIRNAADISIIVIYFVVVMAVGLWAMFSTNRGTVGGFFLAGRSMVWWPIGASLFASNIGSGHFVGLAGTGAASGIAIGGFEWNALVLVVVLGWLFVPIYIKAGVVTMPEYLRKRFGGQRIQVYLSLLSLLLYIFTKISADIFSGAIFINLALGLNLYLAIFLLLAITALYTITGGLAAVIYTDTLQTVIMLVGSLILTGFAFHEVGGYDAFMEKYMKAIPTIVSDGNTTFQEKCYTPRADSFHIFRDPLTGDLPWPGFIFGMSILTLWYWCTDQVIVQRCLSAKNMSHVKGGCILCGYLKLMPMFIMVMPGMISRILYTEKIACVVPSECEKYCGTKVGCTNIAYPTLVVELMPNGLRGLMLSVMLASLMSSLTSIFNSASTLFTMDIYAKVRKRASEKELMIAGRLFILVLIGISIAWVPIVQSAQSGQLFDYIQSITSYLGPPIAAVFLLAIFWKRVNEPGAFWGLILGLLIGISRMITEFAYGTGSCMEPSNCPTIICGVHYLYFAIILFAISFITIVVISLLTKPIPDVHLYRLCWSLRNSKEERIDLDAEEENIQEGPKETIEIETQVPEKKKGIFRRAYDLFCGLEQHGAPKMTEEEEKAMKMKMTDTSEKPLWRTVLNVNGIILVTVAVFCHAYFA

SD rats = assay: Acute single administration, urinary glucose changes in SD rats; type: in vivo, rat; set-up: Urine glucose concentration / The total amount of glucose excreted: unit not given here; conditions: 1 mg/kg oral, after 24 h
Description: (1) Acutely Administering Compound to Observed the Urinary Glucose Changes in SD Rats
Thirty-eight male normal SD rats were selected and randomly divided into 5 groups according to body weight and blood glucose, 6-8 in each group. […] After oral gavage, the rats were placed in rats metabolic cages, and urine was collected after 24 h, and the urine volume was recorded, the urine sugar concentration was determined, and urinary sugar content was calculated according to the following formula. Urine content=urinary sugar concentration×urine volume
Glucose levels in urine are measured by the glucose assay kit.
Data were expressed as mean±standard deviation (x±s), and Student's t test was used for statistical analysis of the data, p<0.05 was considered statistically significant.

In the case of `CCOc1ccc(Cc2cc3c(cc2Cl)CO[C@]32O[C@H](C)[C@@H](O)[C@H](O)[C@H]2O)cc1` [Example A26, (1S,3′R,4′S,5′S,6′R)-6′-methyl-6-(4-ethoxybenzyl)-5-chloro-3′,4′,5′,6′-tetrahydro-3H-spiro[isobenzofuran-1,2′-pyran]-3′,4′,5′-triol], the Selectivity [1] is reported as 58, the inhibition at 0.01 µM [1] is reported as 51.5 ± 10.7% and the inhibition at 0.1 µM [1] is reported as 90.5 ± 4.1%. It also gave an IC50 [1] of 15.7 ± 2.1 nM and an IC50 (hSGLT1) of 920 ± 90 nM.
Molecule `CC(O)c1ccc(Cc2cc3c(cc2Cl)CO[C@]32O[C@H](C)[C@@H](O)[C@H](O)[C@H]2O)s1` (stereo partly drawn) [Example A118, (1S,3′R,4′S,5′S,6′R)-5-chloro-6-((5-(1-hydroxyethyl)thiophene-2-yl)methyl)-6′-methyl-3′,4′,5′,6′-tetrahydro-3H-spiro[isobenzofuran-1,2′-pyran]-3′,4′,5′-triol] has a Selectivity [1] of 166, an inhibition at 0.01 µM [1] of 22.1 ± 3% and an inhibition at 0.1 µM [1] of 91.8 ± 3.5%. It also gave an IC50 [1] of 43.4 ± 12.9 nM and an IC50 (hSGLT1) of 7200 ± 600 nM.
`C[C@H]1O[C@]2(OCc3cc(Cl)c(Cc4cc5ccccc5o4)cc32)[C@H](O)[C@@H](O)[C@@H]1O` [Example A36, (1S,3′R,4′S,5′S,6′R)-6′-methyl-6-(benzo[b]furan-2-methyl)-5-chloro-3′,4′,5′,6′-tetrahydro-3H-spiro[isobenzofuran-1,2′-pyran]-3′,4′,5′-triol] gave a Selectivity [1] of 166, an inhibition at 0.01 µM [1] of 24.4 ± 8.8% and an inhibition at 0.1 µM [1] of 103 ± 3.7%. For the same molecule, the IC50 [1] was 32.4 ± 8.2 nM and the IC50 (hSGLT1) was 5400 ± 660 nM.
`C[C@H]1O[C@]2(OCc3cc(Cl)c(Cc4cc5ccccc5s4)cc32)[C@H](O)[C@@H](O)[C@@H]1O` [Example A35, (1S,3′R,4′S,5′S,6′R)-6′-methyl-6-(benzo[b]thiophene-2-methyl)-5-chloro-3′,4′,5′,6′-tetrahydro-3H-spiro[isobenzofuran-1,2′-pyran]-3′,4′,5′-triol] was tested, and the Selectivity [1] was 81, the inhibition at 0.01 µM [1] was 22.4 ± 7.5% and the inhibition at 0.1 µM [1] was 95.7 ± 2%. For the same molecule, the IC50 [1] was 24 ± 2.4 nM and the IC50 (hSGLT1) was 1950 ± 130 nM.
Molecule `C[C@H]1O[C@]2(OCc3cc(Cl)c(Cc4ccc(CCO)s4)cc32)[C@H](O)[C@@H](O)[C@@H]1O` [Example A119, (1S,3′R,4′S,5′S,6′R)-5-chloro-6-((5-(2-hydroxyethyl)thiophene-2-yl)methyl)-6′-methyl-3′,4′,5′,6′-tetrahydro-3H-spiro[isobenzofuran-1,2′-pyran]-3′,4′,5′-triol] has a Selectivity [1] of 167, an inhibition at 0.01 µM [1] of 22 ± 3.1% and an inhibition at 0.1 µM [1] of 80 ± 2.7%. The IC50 [1] was 3.6 ± 0.8 nM and the IC50 (hSGLT1) was 600 ± 80 nM.
Molecule `CCc1ccc(Cc2cc3c(cc2F)CO[C@]32O[C@H](C)[C@@H](O)[C@H](O)[C@H]2O)s1` [Example A42, (1S,3′R,4′S,5′S,6′R)-6′-methyl-6-((5-ethylthienyl)-2-methyl)-5-fluoro-3′,4′,5′,6′-tetrahydro-3H-spiro[isobenzofuran-1,2′-pyran]-3′,4′,5′-triol] has a Selectivity [1] of 988, an inhibition at 0.01 µM [1] of 62.4 ± 11.8% and an inhibition at 0.1 µM [1] of 104 ± 2.8%. For the same molecule, the IC50 [1] was 26.7 ± 2 nM, the IC50 (hSGLT1) was 25900 ± 4290 nM and the “The total amount of glucose excreted” value (SD rats; Table 4) was 2.56 ± 2.37. It also gave a Urine glucose concentration (SD rats; Table 4) of 0.82 ± 0.73 and a Urine volume (SD rats; Table 4, in mL) of 18.5 ± 3.51.
In the case of `C[C@H]1O[C@]2(OCc3cc(Cl)c(Cc4ccc(-c5ccc(F)cc5)s4)cc32)[C@H](O)[C@@H](O)[C@@H]1O` [Example A31], the Selectivity [1] is reported as 19483, the inhibition at 0.01 µM [1] is reported as 67.5 ± 5.7% and the inhibition at 0.1 µM [1] is reported as 91.5 ± 11.7%. The IC50 [1] was 3.6 ± 0.7 nM, the IC50 (hSGLT1) was 70100 ± 7900 nM and the “The total amount of glucose excreted” value (SD rats; Table 3) was 9.41 ± 6.18. It also gave a Urine glucose concentration (SD rats; Table 3) of 1.50 ± 0.60 and a Urine volume (SD rats; Table 3, in mL) of 33.13 ± 9.99.
For `CCc1ccc(Cc2ccc3c(c2)[C@]2(OC3)O[C@H](C)[C@@H](O)[C@H](O)[C@H]2O)cc1` [Example A2, (1S,3′R,4′S,5′S,6′R)-6′-methyl-6-(4-ethylbenzyl)-3′,4′,5′,6′-tetrahydro-3H-spiro[isobenzofuran-1,2′-pyran]-3′,4′,5′-triol], the Selectivity [1] was 351, the inhibition at 0.01 µM [1] was 51.4 ± 2.1% and the inhibition at 0.1 µM [1] was 62.6 ± 2%. It also gave an IC50 [1] of 63.5 ± 7.1 nM and an IC50 (hSGLT1) of 22300 ± 4260 nM.
For `COCCc1ccc(Cc2cc3c(cc2Cl)CO[C@]32O[C@H](C)[C@@H](O)[C@H](O)[C@H]2O)s1` [Example A114, (1S,3′R,4′S,5′S,6′R)-5-chloro-6-((5-(2-methoxyethyl)thiophene-2-yl)methyl)-6′-methyl-3-3′,4′,5′,6′-tetrahydro-3H-spiro[isobenzofuran-1,2′-pyran]-3′,4′,5′-triol], the Selectivity [1] was 83, the inhibition at 0.01 µM [1] was 18.3 ± 2.2% and the inhibition at 0.1 µM [1] was 71.4 ± 2.8%. It also gave an IC50 [1] of 43.5 ± 11.3 nM and an IC50 (hSGLT1) of 3600 ± 260 nM.
`CCc1ccc(Cc2cc3c(cc2Cl)CO[C@]32O[C@H](C)[C@@H](O)[C@H](O)[C@H]2O)cc1` [Example A22, (1S,3′R,4′S,5′S,6′R)-6′-methyl-6-(4-ethylbenzyl)-5-chloro-3′,4′,5′,6′-tetrahydro-3H-spiro[isobenzofuran-1,2′-pyran]-3′,4′,5′-triol] showed a Selectivity [1] of 13, an inhibition at 0.01 µM [1] of 25 ± 3.1% and an inhibition at 0.1 µM [1] of 79.8 ± 8.5%. The IC50 [1] was 29.7 ± 18.4 nM and the IC50 (hSGLT1) was 410 ± 50 nM.
`CCc1ccc(Cc2cc3c(cc2C)CO[C@]32O[C@H](C)[C@@H](O)[C@H](O)[C@H]2O)s1` [Example A57, (1S,3′R,4′S,5′S,6′R)-5,6′-dimethyl-6-((5-ethylthienzyl)-2-methyl)-3′,4′,5′,6′-tetrahydro-3H-spiro[isobenzofuran-1,2′-pyran]-3′,4′,5′-triol] was tested, and the inhibition at 0.01 µM [1] was 31.1 ± 7.4%, the inhibition at 0.1 µM [1] was 95.4 ± 2.8% and the IC50 [1] was 8.4 ± 0.7 nM. For the same molecule, the IC50 (hSGLT1) was 1930 ± 160 nM, the “The total amount of glucose excreted” value (SD rats; Table 4) was 786.39 ± 96.43 and the Urine glucose concentration (SD rats; Table 4) was 232.39 ± 50.5. The Urine volume (SD rats; Table 4, in mL) was 19.17 ± 2.71.
